Patent US9464064B2, “HCV helicase inhibitors and methods of use thereof” (University of Kansas, priority 2011, dated 2016)
Read-outs that look alike come from different tables or passages of the source.

Key:
[1] = biological target: T1, HCV NS3 helicase NS3h_1b(con1) (Hepatitis C virus genotype 1b, UniProt Q9WMX2); test: biochemical; assay type: biochemical, hepatitis C virus genotype 1b(con1)
T1 construct: truncated C-terminally His-tagged NS3 proteins lacking the N-terminal protease, called NS3h; His-tag (C); made in house
Summary of the method: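 Molecular beacon helicase assay with His-tagged recombinant NS3 and a Cy5/IBRQ-labelled partially duplex DNA substrate (25 bp) or Tye665-labelled RNA substrate (19 bp). Reactions started with 1 mM ATP. Screening read fluorescence before and 30 min after ATP (ex 643/em 670 nm). For IC50, 5% v/v DMSO was present, initial velocities came from first-order decay fits, and a Hill equation was applied.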

[2] = tested on: HCV RLuc subgenomic replicon (genotype 1b) in Huh-7.5 cells; test: HCV subgenomic replicon assay (Renilla luciferase); assay type: cell-based, hepatitis C virus; conditions: for inhibition at 10 µM: Hepatitis C virus; for ability to decrease the amount of HCV RNA present in the cultures: 10 μM
Description: An HCV Renilla luciferase reporter construct (HCV RLuc; Huang, et al. (2006) Hepatology 43:81-90) was used to measure the effect of each compound on cellular HCV RNA levels. In HCV RLuc, the HCV internal ribosome entry site (IRES) drives the translation of the neomycin and Renilla luciferase genes while the HCV nonstructural proteins (NS3 to NS5B) are translated from the Encephalomyocarditis virus IRES (Huang, et al. (2006) supra). The plasmid DNA was cleaved with ScaI, purified by phenol/chloroform extraction followed by ethanol precipitation, and used as template for RNA transcription using […] T7 RNA transcription kit (Ambion, Austin, Tex.). The RNA transcripts were treated with 2 U DNase I (Ambion) at 37° C. for 30 minutes, purified by acid phenol/chloroform extraction, followed by isopropanol precipitation, and suspended in diethylpyrocarbonate-treated water. RNA concentration was determined by spectrophotometry by measuring the A260. RNA integrity and size was checked on 1% agarose gel. Transcribed RNA was stored in aliquots at −80° C. until needed.
Huh-7.5 cells were transfected with HCV RNA by electroporation. Briefly, subconfluent Huh7.5 cells were trypsinized, suspended in complete growth medium, and centrifuged at 1,000×g for 5 minutes at 4° C. The cell pellets were then washed twice with ice-cold phosphate-buffered saline (PBS) and suspended at 1.75×10^7 cells/mL in ice-cold PBS. Replicon RNA (5 μg) was mixed with 0.4 mL of cell suspension and transferred to 2 mm gap width electroporation cuvette (EPPENDORF AG, Germany) and pulsed 5 times for 99 μsec at 820 V over 1.1 sec intervals using the ECM 830 electroporator instrument (BTX Harvard Apparatus, Holliston, Mass.). After a 5 minute recovery period at room temperature, cells were transferred to 10 ml complete growth medium, and seeded into 10 cm diameter cell culture dishes. Twenty-four hours after transfection, the medium was replaced with fresh complete DMEM supplemented with 1 mg/ml geneticin (Invitrogen) and the medium was replaced every three to four days with fresh medium containing 1 mg/mL geneticin. Geneticin-resistant colonies were selected for a period of two weeks and expanded in the presence of 250 μg/mL geneticin.
HCV RLuc replicon cells were seeded at a density of 10×10^3 cells per well in 96-well plates and incubated for 4-5 hours to allow the cells to attach to the plate. The compounds dissolved in dimethyl sulfoxide (DMSO) were added at a final concentration of 10 μM (DMSO solvent final concentration was 0.5%) and the cells were incubated for 72 hours at 37° C. under 5% CO2 atmosphere. The effects of compounds on HCV replication were then assessed by measuring the Renilla luciferase activity in compound-treated versus DMSO-treated cells. At the end of the incubation period, the medium was aspirated and the cells were washed with 1×PBS. The Renilla luciferase reporter gene assay was performed using the Renilla luciferase assay kit (PROMEGA, Madison, Wis.) according to the manufacturer's instructions. Briefly, the cells were lysed by addition of 50 μL of 1× Renilla luciferase lysis buffer followed by two cycles of freeze/thaw. The luciferase activity content of the lysate was measured with a FLUOSTAR Omega microplate reader instrument (BMG Labtech, Germany) after injecting 50 μL of luciferase substrate and reading for 5 seconds.
To determine if the above identified compounds might be useful as HCV antiviral agents, they were added to cells harboring HCV subgenomic RNA replicon. The HCV replicon chosen was derived from the same HCV strain (genotype 1b) as the NS3 protein used for screening and enzyme assays. […] 75:4614-4624; Blight, et al. (2002) J. Virol. 76:13001-13014). […]

[3] = MBHA, DNA unwinding, mean ± SD of three titrations, read-out: Helicase IC50
[4] = genotype 1b (con1), read-out: Target Potency MBHA (IC50 avg., μM) 1b (con1)
[5] = standard HCV helicase MBHA (Table 9), read-out: DNA Unwinding IC50
[6] = Huh7.5, 10 μM compound, triplicate, average ± SD, read-out: HCV replication (% Inh.)
[7] = Huh7.5, 10 μM, read-out: Replicon (% Inhibition @ 10 μM)
[8] = DNA-based MBHA, genotype 1b, read-out: DNA Helicase NS3h_1b IC50 (μM) ± SD

T1 sequence (Q9WMX2 1192-1657): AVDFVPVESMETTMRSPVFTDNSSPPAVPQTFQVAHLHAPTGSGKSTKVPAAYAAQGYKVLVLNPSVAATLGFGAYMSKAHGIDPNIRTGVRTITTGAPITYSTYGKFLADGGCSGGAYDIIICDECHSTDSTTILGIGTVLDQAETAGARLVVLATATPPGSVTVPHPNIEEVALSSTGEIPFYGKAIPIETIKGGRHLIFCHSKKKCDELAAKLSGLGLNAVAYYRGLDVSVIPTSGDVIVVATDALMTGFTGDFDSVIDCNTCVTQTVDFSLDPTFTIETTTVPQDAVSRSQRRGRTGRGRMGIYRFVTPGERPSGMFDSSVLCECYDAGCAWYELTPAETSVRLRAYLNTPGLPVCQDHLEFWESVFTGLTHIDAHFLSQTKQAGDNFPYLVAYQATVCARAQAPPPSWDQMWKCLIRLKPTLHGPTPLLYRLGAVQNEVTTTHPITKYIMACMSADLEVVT

| Compound | IC50 [1, 3] [µM] | IC50 [1, 4] [µM] | IC50 [1, 5] [µM] | inhibition at 10 µM [2, 6] [%] | inhibition at 10 µM [2, 7] [%] | further results |
| --- | --- | --- | --- | --- | --- | --- |
| Cc1ccc2nc(-c3ccc4nc(-c5ccc(NC(=O)c6ccc(N(C)C)cc6)cc5)sc4c3)sc2c1S(=O)(=O)O [Compound 14, 2′-(4-(4-(dimethylamino)benzamido)phenyl)-6-methyl-[2,6′-bibenzo[d]thiazole]-7-sulfonic acid] | 11 ± 6.7 | 11 ± 6.7 | 11 ± 7 | 22 ± 2 | 22 ± 2 |  |
| Cc1ccc2nc(-c3ccc(NC(=S)Nc4ccccc4Br)cc3)sc2c1 |  | > 100 |  |  | 80 ± 17 |  |
| Cc1ccc2nc(-c3ccc4nc(-c5ccc(NC(=O)c6ccc(C(F)(F)F)c(F)c6)cc5)sc4c3)sc2c1S(=O)(=O)O [Compound 23, 2′-(4-(3-fluoro-4-(trifluoromethyl)benzamido)phenyl)-6-methyl-[2,6′-bibenzo[d]thiazole]-7-sulfonic acid] | 17 ± 17 | 17.4 ± 17 | 17 ± 17 | 48 ± 4 | 48 ± 4 |  |
| Cc1ccc2nc(-c3ccc4nc(-c5ccc(NC(=O)c6cc(F)cc(C(F)(F)F)c6)cc5)sc4c3)sc2c1S(=O)(=O)O [Compound 27, 2′-(4-(3-fluoro-5-(trifluoromethyl)benzamido)phenyl)-6-methyl-[2,6′-bibenzo[d]thiazole]-7-sulfonic acid] | 28 ± 7 | 28.4 ± 7 |  | 51 ± 9 | 51 ± 9 |  |
| Cc1ccc2nc(-c3ccc4nc(-c5ccc(NC(=O)Nc6ccccc6)cc5)sc4c3)sc2c1S(=O)(=O)O.N [Compound 52] |  | 4.1 ± 1.3 | 4 ± 1 |  | -18 ± 56 |  |
| Cc1ccc2nc(-c3ccc4nc(-c5ccc(NC(=O)c6ccc(Cl)c(Cl)c6)cc5)sc4c3)sc2c1S(=O)(=O)O [Compound 18, 2′-(4-(3,4-dichlorobenzamido)phenyl)-6-methyl-[2,6′-bibenzo[d]thiazole]-7-sulfonic acid] | 3.7 ± 1 | 3.7 ± 1 | 4 ± 1 | 43 ± 15 | 43 ± 15 | IC50 [1, 8]: 4 ± 1 µM |
| COc1ccc(NC(=O)Nc2ccc(-c3nc4ccc(-c5nc6ccc(C)c(S(=O)(=O)O)c6s5)cc4s3)cc2)cc1 [Compound 55] |  | 4.8 ± 2 | 5 ± 2 |  | 21 ± 10 |  |
| Cc1ccc2nc(-c3ccc4nc(NC(=O)c5ccc6ncoc6c5)sc4c3)sc2c1 |  | 60 ± 6.1 |  |  | 90 ± 35 |  |
| COc1ccc(C(=O)Nc2ccc(-c3nc4ccc(-c5nc6ccc(C)c(S(=O)(=O)O)c6s5)cc4s3)cc2)cc1 [Compound 8, 2′-(4-(4-methoxybenzamido)phenyl)-6-methyl-[2,6′-bibenzo[d]thiazole]-7-sulfonic acid] |  |  |  |  |  | IC50 ([1]; DNA Unwinding IC50, standard HCV helicase MBHA (Table 9)): 10 ± 3 µM; IC50 ([1]; Helicase IC50, MBHA, DNA unwinding, mean ± SD of three titrations): 10 ± 2.6 µM; IC50 ([1]; Target Potency MBHA (IC50 avg., μM) 1b (con1), genotype 1b (con1)): 10 ± 2.6 µM; inhibition at 10 µM ([2]; Huh7.5, read-out: HCV replication (% Inh.)): 64 ± 4%; inhibition at 10 µM ([2]; Huh7.5, read-out: Replicon (% Inhibition @ 10 μM)): 64 ± 4% |
| Cc1ccc2nc(-c3ccc4nc(-c5ccc6nc(-c7ccc8nc(-c9ccc(N)cc9)sc8c7)sc6c5)sc4c3)sc2c1S(=O)(=O)O [Compound P4, 2′″-(4-aminophenyl)-6-methyl-[2,6′:2″,6′″-quaterbenzo[d]thiazole]-7-sulfonic acid] | 0.8 |  |  |  |  | IC50 [1, 8]: 2 ± 0.1 µM; ability to decrease the amount of HCV RNA present in the cultures [2]: showed any ability to decrease the amount of HCV RNA present in the cultures |
| Cc1ccc2nc(-c3ccc4nc(-c5ccc(NC(=O)c6ccc(CNC(=O)OCC7c8ccccc8-c8ccccc87)cc6)cc5)sc4c3)sc2c1S(=O)(=O)O.N [Compound 41] |  | 4.4 ± 0.3 | 4 |  | 48 ± 18 |  |
| Cc1ccc2nc(-c3ccc4nc(-c5ccc(NC(=O)c6ccc(N)cc6)cc5)sc4c3)sc2c1S(=O)(=O)O [Compound 6, 2′-(4-(4-aminobenzamido)phenyl)-6-methyl-[2,6′-bibenzo[d]thiazole]-7-sulfonic acid] | 10 ± 2.4 | 10.3 ± 2.4 | 10 ± 2 | 33 ± 1 | 33 ± 1 | IC50 [1, 8]: 10 ± 2.4 µM |
| Cc1ccc2nc(-c3ccc4nc(-c5ccc6nc(-c7ccc(N)cc7)sc6c5)sc4c3)sc2c1S(=O)(=O)O [Compound P3, 2″-(4-aminophenyl)-6-methyl-[2,6′:2′,6″-terbenzo[d]thiazole]-7-sulfonic acid] | 0.9 ± 0.1 |  |  |  |  | ability to decrease the amount of HCV RNA present in the cultures [2]: showed any ability to decrease the amount of HCV RNA present in the cultures |
| CC(=O)Nc1ccc(-c2nc3ccc(-c4nc5ccc(C)c(S(=O)(=O)O)c5s4)cc3s2)cc1 [Compound 30, 2′-(4-acetamidophenyl)-6-methyl-[2,6′-bibenzo[d]thiazole]-7-sulfonic acid] | > 100 | > 100 | 227 ± 107 | 1 ± 12 | 26 ± 21 |  |
| Cc1ccc2nc(-c3ccc(NC(=O)c4ccc(NC(=O)c5ccc(NC(=O)OCC6c7ccccc7-c7ccccc76)cc5)cc4)cc3)sc2c1S(=O)(=O)O.N [Compound 51] |  | 2.5 ± 0.5 | 3 |  | -14 ± 26 |  |
| Cc1ccc2nc(-c3ccc4nc(-c5ccc(NC(=O)c6ccc(F)cc6)cc5)sc4c3)sc2c1S(=O)(=O)O.N [Compound 7, 2′-(4-(4-fluorobenzamido)phenyl)-6-methyl-[2, bibenzo[d]thiazole]-7-sulfonic acid] | 5.2 ± 0.6 | 5.2 ± 0.6 | 5 ± 1 | 50 ± 5 | 50 ± 5 | IC50 [1, 8]: 5 ± 0.6 µM |
| COc1ccc(S(=O)(=O)Nc2ccc(-c3nc4ccc(-c5nc6ccc(C)c(S(=O)(=O)O)c6s5)cc4s3)cc2)cc1 [Compound 29, 2′-(4-(4-methoxyphenylsulfonamido)phenyl)-6-methyl-[2,6′-bibenzo[d]thiazole]-7-sulfonic acid] | 24 ± 2.2 | 24.4 ± 2.2 | 24 ± 2 | 44 ± 5 | 44 ± 5 |  |
| Cc1ccc2nc(-c3ccc4nc(-c5ccc(NC(=O)c6ccc(C(F)(F)F)cc6)cc5)sc4c3)sc2c1S(=O)(=O)O [Compound 12, 6-methyl-2′-(4-(4-(trifluoromethyl)benzamido)phenyl)-[2,6′-bibenzo[d]thiazole]-7-sulfonic acid] | 1.8 ± 0.4 | 1.8 ± 0.4 | 2 | 44 ± 12 | 44 ± 12 | IC50 [1, 8]: 2 ± 0.4 µM |
| Cc1ccc2nc(-c3ccc(NC(=O)c4ccc(NC(=O)c5ccc(C(F)(F)F)cc5)cc4)cc3)sc2c1S(=O)(=O)O.N [Compound 44] |  | 10.4 ± 1.9 | 10 ± 2 |  | 4 ± 8 |  |
| Cc1ccc2nc(-c3ccc(NC(=O)c4ccc(NS(=O)(=O)c5ccccc5)cc4)cc3)sc2c1S(=O)(=O)O |  | > 100 |  |  | -73 ± 50 |  |
